The test system of one data set is Staphylococcus aureus. Briefly: MIC screening, broth microdilution (CLSI). In general terms: Broth dilution looks for growth in wells or tubes with falling amounts of substance.
In data set [1] the test system is Acinetobacter calcoaceticus. As to the kind of experiment: MIC screening, broth microdilution (CLSI).
Procedure: (§1) The minimum inhibition concentration (MIC) screening was performed with 14 bacterial strains and 4 compounds. The MICs were determined by the broth microdilution method according to the Clinical and Laboratory Standards Institute (CLSI) guidelines. The MIC screening was performed on 96-well plates containing the compounds in serial 2-fold dilutions from 64 to 0.06 μg/ml. The bacterial inoculations were prepared in cation-adjusted Mueller Hinton medium broth from cultures grown on appropriate agar plates which are prepared freshly every week. The growth controls and sterile controls were included in each assay plates. The assay plates were incubated in an ambient-air incubator at 35±2° C. for 16-20 hr (24 hr for MRSA), and bacterial growth was observed and recorded.
(§2) Compound stock solutions were prepared in 100% DMSO on the day of MIC screening and use immediately. Compound stock concentration=[(highest testing concentration)×103 μl/3 μl] (e.g. if the required highest testing concentration is 64 μg/ml in assay plates, stock concentration=64×103/3=2.2 mg/ml). The potency of testing compound is assumed as 100% unless otherwise stated whereas the potency of reference compound is calculated according to manufacturer's analysis data.
(§3) Eleven two-fold dilutions per compound were made then transferred 3 μl to each well of test plate. Final concentration of DMSO in the MIC screening is ˜3%.
(§4) B. Transfer colonies from fresh culture plates into 5 ml of saline with sterile loops and mix well. Measure and adjust turbidity to 0.5 McFarland barium sulphate standard using a turbidity meter. Alternatively, transfer 1-2 colonies into 500 μl of saline and adjust OD625 to ˜0.1 using a plate reader. […] Dilute bacterial inoculum 1:280 for Gram-positive and fastidious strains and 1:400 for Gram-negative strains into corresponding medium broth (CAMHB, CAMHB+3% lysed horse blood, HTM) (e.g. 35.6 μl of inoculum into 10 ml of CAMHB or 25 μl of inoculum into 10 ml of CAMHB). H. influenzae: HTM Streptococci: CAMHB+3% lysed horse blood Other strains in the panel: CAMHB 2.4. Prepare Assay Plates A. Add 100 μl of the bacterial inoculum to each well of the compound plates except wells B12, D12, F12 and H12. B. Add 100 μl of medium broth to wells B12, D12, F12 and H12 of the compound plates. […] Stack four plates together and cover with a sterile plate lid. Incubate in an ambient-air incubator at 35±2° C. for 16-20 hours (24 hours for MRSA). […] Perform Colony Counts A. Dilute the bacterial inoculum (0.5 McFarland) to a serial of 10-1 to 10-7 in saline solution (e.g. 100 μl bacterial inoculum+900 μl of saline). B. Spread 100 μl of each dilution (10-4, 10-5, 10-6, and 10-7) onto CAMHA plates in triplication, let the liquid soak into the agar for 10 minutes, invert the agar plates and incubate for 24 hr at 35±2° C. […] Record MICs and Calculate CFUs A. Open the compound plate layout in the compound management system, and check the assay plate barcode. B. Place the assay plate on the top of MIC reader, and adjust the magnification mirror to read each wells, record growth status as raw data. (Optional) Record photo image of each assay plates using high-speed high-resolution scanner. […] Determine MIC break points according to CLSI guideline. D. Count colonies and calculate CFU of bacterial inoculum.
For the next data set, the system named is Escherichia coli. As to the kind of experiment: MIC screening, broth microdilution (CLSI).
For another data set, the system named is Streptococci. Briefly: MIC screening, broth microdilution (CLSI).
The test system of the next data set is Haemophilus influenzae. Briefly: MIC screening, broth microdilution (CLSI).
For a further data set, the system named is MRSA. Briefly: MIC screening, broth microdilution (CLSI).
Another data set has as its system Pseudomonas aeruginosa. As to the kind of experiment: MIC screening, broth microdilution (CLSI).
A further data set relates to Enterococci. As to the kind of experiment: MIC screening, broth microdilution (CLSI).
A further data set deals with Klebsiella pneumoniae. Briefly: MIC screening, broth microdilution (CLSI).
For data set [2] the following is noted: background statement; cited from earlier work.

SMILES strings stand for the structures. Values after ≈ are worked out from the molar mass of the structure shown. Where two headings read alike, the source gives them in different places.

Procedure for Enterococci: as §1
(§5) A. Revive bacterial strains from storage frozen (−80° C.) two days before the MIC screening. Streak onto surface of appropriate agar plates, and incubate the plates for 20-24 hr at 35±2° C. in an appropriate atmosphere.
Enterococci: TSA II, ambient air
(§6) B. Select 5-10 well-isolated colonies of similar morphology and restreak onto fresh agar plates using sterile loops. Incubate the plates for 20-24 hr at 35±2° C. in an appropriate atmosphere as above.
as §2, §3
B. Transfer colonies from fresh culture plates into 5 ml of saline with sterile loops and mix well. Measure and adjust turbidity to 0.5 McFarland barium sulphate standard using a turbidity meter. Alternatively, transfer 1-2 colonies into 500 μl of saline and adjust OD625 to ˜0.1 using a plate reader. C. Dilute bacterial inoculum 1:280 for Gram-positive and fastidious strains and 1:400 for Gram-negative strains into corresponding medium broth (CAMHB, CAMHB+3% lysed horse blood, HTM) (e.g. 35.6 μl of inoculum into 10 ml of CAMHB or 25 μl of inoculum into 10 ml of CAMHB). H. influenzae: HTM Streptococci: CAMHB+3% lysed horse blood Other strains in the panel: CAMHB 2.4. Prepare Assay Plates A. Add 100 μl of the bacterial inoculum to each well of the compound plates except wells B12, D12, F12 and H12. B. Add 100 μl of medium broth to wells B12, D12, F12 and H12 of the compound plates. C. Stack four plates together and cover with a sterile plate lid. Incubate in an ambient-air incubator at 35±2° C. for 16-20 hours (24 hours for MRSA). […] Perform Colony Counts A. Dilute the bacterial inoculum (0.5 McFarland) to a serial of 10-1 to 10-7 in saline solution (e.g. 100 μl bacterial inoculum+900 μl of saline). B. Spread 100 μl of each dilution (10-4, 10-5, 10-6, and 10-7) onto CAMHA plates in triplication, let the liquid soak into the agar for 10 minutes, invert the agar plates and incubate for 24 hr at 35±2° C. […] Record MICs and Calculate CFUs A. Open the compound plate layout in the compound management system, and check the assay plate barcode. B. Place the assay plate on the top of MIC reader, and adjust the magnification mirror to read each wells, record growth status as raw data. (Optional) Record photo image of each assay plates using high-speed high-resolution scanner. C. Determine MIC break points according to CLSI guideline. D. Count colonies and calculate CFU of bacterial inoculum.
Procedure for Escherichia coli: as §1, §2, §3, §4
Procedure for Haemophilus influenzae: as §1, §5
Haemophilus influenzae: chocolate agar, 5% CO2
as §6, §2, §3, §4
Procedure for Klebsiella pneumoniae: as §1, §2, §3, §4
Procedure for MRSA: The MICs were determined by the broth microdilution method according to the Clinical and Laboratory Standards Institute (CLSI) guidelines. The MIC screening was performed on 96-well plates containing the compounds in serial 2-fold dilutions from 64 to 0.06 μg/ml. The bacterial inoculations were prepared in cation-adjusted Mueller Hinton medium broth from cultures grown on appropriate agar plates which are prepared freshly every week. The growth controls and sterile controls were included in each assay plates. The assay plates were incubated in an ambient-air incubator at 35±2° C. for 16-20 hr (24 hr for MRSA), and bacterial growth was observed and recorded.
as §5, §6, §2, §3, §4
Procedure for Pseudomonas aeruginosa: as §1, §2, §3, §4
Procedure for Staphylococcus aureus: as §1, §2, §3, §4
Procedure for Streptococci: as §1, §5
Streptococci: TSA II, 5% CO2
as §6, §2, §3, §4

In the case of `C[C@H]1COc2c(N3CCN(C)CC3)c(F)cc3c(=O)c(C(=O)O)cn1c23` [Levofloxacin, reference compound], the MIC was 0.5 µg/mL (≈ 1.38 µM) against Staphylococcus aureus (ATCC29213, Staphylococcus aureus (ATCC 29213), Exp 1); 0.25 µg/mL (≈ 0.692 µM) against Staphylococcus aureus (ATCC29213, Staphylococcus aureus (ATCC 29213), Exp 2); 64 µg/mL (≈ 177 µM) in the data set on Staphylococcus aureus (Staphylococcus aureus (Levofloxacin-resistant), Exp 1); 64 µg/mL (≈ 177 µM) with Staphylococcus aureus (Staphylococcus aureus (Levofloxacin-resistant), Exp 2); 4 µg/mL (≈ 11.1 µM) in [1]; 4 µg/mL (≈ 11.1 µM) in data set [1] (Exp 2). In addition, the MIC in the data set on Escherichia coli (Exp 1) is < 0.0625 µg/mL; against Escherichia coli (Exp 2), < 0.0625 µg/mL; against Streptococci (Streptococcus pneumoniae, ATCC49619, Streptococcus pneumoniae (ATCC 49619), Exp 1), 0.5 µg/mL (≈ 1.38 µM); against Streptococci (Streptococcus pneumoniae, ATCC49619, Streptococcus pneumoniae (ATCC 49619), Exp 2), 0.5 µg/mL (≈ 1.38 µM); with Streptococci (Streptococcus pneumoniae, Streptococcus pneumoniae (Erythromycin-resistant), Exp 1), 1 µg/mL (≈ 2.77 µM); against Streptococci (Streptococcus pneumoniae, Streptococcus pneumoniae (Erythromycin-resistant), Exp 2), 1 µg/mL (≈ 2.77 µM). The MIC was 0.5 µg/mL (≈ 1.38 µM) with Streptococci (Streptococcus pyogenes, ATCC700942, Streptococcus pyogenes (ATCC 700942), Exp 1); 0.5 µg/mL (≈ 1.38 µM) against Streptococci (Streptococcus pyogenes, ATCC700942, Streptococcus pyogenes (ATCC 700942), Exp 2); < 0.0625 µg/mL against Haemophilus influenzae; <0.0625 µg/mL against Haemophilus influenzae (Exp 2); 0.25 µg/mL (≈ 0.692 µM) against MRSA (Staphylococcus aureus (ATCC 43300), Exp 2); 8 µg/mL (≈ 22.1 µM) with MRSA (Staphylococcus aureus (MRSA, Erythromycin & clindamycin-resistant), Exp 2). Further, the MIC against MRSA (Staphylococcus aureus, ATCC43300 / MRSA) was determined as 0.25 µg/mL (≈ 0.692 µM); in the data set with MRSA (Staphylococcus aureus, MRSA) it was 8 µg/mL (≈ 22.1 µM); against Pseudomonas aeruginosa it was 1 µg/mL (≈ 2.77 µM); in the data set on Pseudomonas aeruginosa (Exp 2), 1 µg/mL (≈ 2.77 µM); in the data set on Enterococci (Enterococcus faecalis, ATCC29212, Enterococcus faecalis (ATCC 29212), Exp 1) it was 1 µg/mL (≈ 2.77 µM); against Enterococci (Enterococcus faecalis, ATCC29212, Enterococcus faecalis (ATCC 29212), Exp 2), 1 µg/mL (≈ 2.77 µM). In addition, the MIC is > 64 µg/mL in the data set with Enterococci (Enterococcus faecium, ATCC700221, Enterococcus faecium (ATCC 700221), Exp 1); > 64 µg/mL in the data set with Enterococci (Enterococcus faecium, ATCC700221, Enterococcus faecium (ATCC 700221), Exp 2); 1 µg/mL (≈ 2.77 µM) against Klebsiella pneumoniae; 1 µg/mL (≈ 2.77 µM) against Klebsiella pneumoniae (Exp 2).

Take `Oc1ccc(/C=C/c2cc(O)cc(O)c2)cc1` [Resveratrol]: the oral bioavailability entry in data set [2] is “very poor oral bioavailability”.

The values above are taken from patent publication US10696615B2, “Prenylated hydroxystilbenes” (The University of Sydney, priority 2011, dated 2020).
